Test results: US20250059171A1 (Hoffmann-La Roche Inc., priority 2021, published 2025)
Where two headings read alike, the source gives them in different places.

How the values were obtained:
[1] = molecular target: SARS-CoV-2 3CLpro (Severe acute respiratory syndrome coronavirus 2, UniProt P0DTD1); experiment: biochemical
[2] = molecular target: HCoV-229E 3CLpro (Human coronavirus 229E, UniProt P0C6X1); experiment: HCoV-229E 3CLpro inhibition assay (FRET); format: biochemical
[3] = molecular target: MERS-CoV 3CLpro (Middle East respiratory syndrome-related coronavirus, UniProt K9N7C7); experiment: biochemical
[4] = molecular target: SARS-CoV 3CLpro (Severe acute respiratory syndrome coronavirus, UniProt P0C6X7); experiment: biochemical

Sequence of MERS-CoV 3CLpro (K9N7C7 3248-3553): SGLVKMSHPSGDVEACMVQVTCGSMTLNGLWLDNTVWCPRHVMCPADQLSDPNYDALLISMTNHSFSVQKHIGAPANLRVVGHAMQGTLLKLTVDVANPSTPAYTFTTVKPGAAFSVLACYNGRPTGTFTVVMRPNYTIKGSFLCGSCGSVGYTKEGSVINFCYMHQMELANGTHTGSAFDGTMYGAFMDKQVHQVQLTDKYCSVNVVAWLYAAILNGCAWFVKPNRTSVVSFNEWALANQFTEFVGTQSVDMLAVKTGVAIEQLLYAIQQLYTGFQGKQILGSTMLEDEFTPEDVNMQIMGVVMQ
Sequence of HCoV-229E 3CLpro (P0C6X1 2966-3267): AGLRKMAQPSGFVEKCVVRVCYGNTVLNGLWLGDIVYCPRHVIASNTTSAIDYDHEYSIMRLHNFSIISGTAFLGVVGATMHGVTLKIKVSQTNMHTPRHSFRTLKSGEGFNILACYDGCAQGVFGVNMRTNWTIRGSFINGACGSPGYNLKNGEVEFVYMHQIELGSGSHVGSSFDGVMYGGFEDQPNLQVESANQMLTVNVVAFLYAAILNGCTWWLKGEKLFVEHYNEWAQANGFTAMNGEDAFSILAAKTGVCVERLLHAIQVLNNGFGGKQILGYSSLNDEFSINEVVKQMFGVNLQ

SMILES	IC50 [1] [nM]	IC50 [2] [nM]	IC50 [3] [nM]	IC50 [4] [nM]	IC50 ([1]; read-out: IC50 in SARS-CoV-2 3CLpro assay) [nM]
CCC(C)(C)[C@H](NC(=O)[C@H](C)F)C(=O)N1C[C@H]2[C@@H]([C@H]1C(=O)NN(C[C@@H]1CCNC1=O)C(=O)[C@H](F)Cl)C2(C)C [Example 140, (2S)—N-[(1S)-1-[(1R,2S,5S)-2-[[[(2R)-2-chloro-2-fluoro-acetyl]-[[(3S)-2-oxopyrrolidin-3-yl]methyl]amino]carbamoyl]-6,6-dimethyl-3-azabicyclo[3.1.0]hexane-3-carbonyl]-2,2-dimethyl-butyl]-2-fluoro-propanamide]	11	31	94	25	
CCC(C)(C)[C@H](NC(=O)[C@@H](C)F)C(=O)N1C[C@H]2[C@@H]([C@H]1C(=O)NN(C[C@@H]1CCNC1=O)C(=O)[C@H](F)Cl)C2(C)C [Example 141, (2R)—N-[(1S)-1-[(1R,2S,5S)-2-[[[(2R)-2-chloro-2-fluoro-acetyl]-[[(3S)-2-oxopyrrolidin-3-yl]methyl]amino]carbamoyl]-6,6-dimethyl-3-azabicyclo[3.1.0]hexane-3-carbonyl]-2,2-dimethyl-butyl]-2-fluoro-propanamide]	10	35	117	15	
CCC(C)(C)[C@H](NC(=O)C1CC1)C(=O)N1C[C@H]2[C@@H]([C@H]1C(=O)NN(C[C@@H]1CCNC1=O)C(=O)[C@H](F)Cl)C2(C)C [Example 142, N-[(1S)-1-[(1R,2S,5S)-2-[[[(2R)-2-chloro-2-fluoro-acetyl]-[[(3S)-2-oxopyrrolidin-3-yl]methyl]amino]carbamoyl]-6,6-dimethyl-3-azabicyclo[3.1.0]hexane-3-carbonyl]-2,2-dimethyl-butyl]cyclopropanecarboxamide]	10	31	83	13	
CCC(C)(C)[C@H](NC(=O)C1(F)CC1)C(=O)N1C[C@H]2[C@@H]([C@H]1C(=O)NN(C[C@@H]1CCNC1=O)C(=O)[C@H](F)Cl)C2(C)C [Example 143, N-[(1S)-1-[(1R,2S,5S)-2-[[[(2R)-2-chloro-2-fluoro-acetyl]-[[(3S)-2-oxopyrrolidin-3-yl]methyl]amino]carbamoyl]-6,6-dimethyl-3-azabicyclo[3.1.0]hexane-3-carbonyl]-2,2-dimethyl-butyl]-1-fluoro-cyclopropanecarboxamide]	8	28	86	13	
CCC(C)(C)[C@H](NC(=O)C(F)F)C(=O)N1C[C@H]2[C@@H]([C@H]1C(=O)NN(C[C@@H]1CCNC1=O)C(=O)[C@H](F)Cl)C2(C)C [Example 144, N-[(1S)-1-[(1R,2S,5S)-2-[[[(2R)-2-chloro-2-fluoro-acetyl]-[[(3S)-2-oxopyrrolidin-3-yl]methyl]amino]carbamoyl]-6,6-dimethyl-3-azabicyclo[3.1.0]hexane-3-carbonyl]-2,2-dimethyl-butyl]-2,2-difluoro-acetamide]	11	33	112	15	
CCC(C)(C)[C@H](NC(=O)C1(F)CC1)C(=O)N1C[C@H]2[C@@H]([C@H]1C(=O)NN(C[C@@H]1CCNC1=O)C(=O)[C@@H](F)Cl)C2(C)C [Example 145, N-[(1S)-1-[(1R,2S,5S)-2-[[[(2S)-2-chloro-2-fluoro-acetyl]-[[(3S)-2-oxopyrrolidin-3-yl]methyl]amino]carbamoyl]-6,6-dimethyl-3-azabicyclo[3.1.0]hexane-3-carbonyl]-2,2-dimethyl-butyl]-1-fluoro-cyclopropanecarboxamide]	18	77	152	27	
CCC(C)(C)[C@H](NC(=O)C1CC1)C(=O)N1C[C@H]2[C@@H]([C@H]1C(=O)NN(C[C@@H]1CCNC1=O)C(=O)[C@@H](F)Cl)C2(C)C [Example 147, N-[(1S)-1-[(1R,2S,5S)-2-[[[(2S)-2-chloro-2-fluoro-acetyl]-[[(3S)-2-oxopyrrolidin-3-yl]methyl]amino]carbamoyl]-6,6-dimethyl-3-azabicyclo[3.1.0]hexane-3-carbonyl]-2,2-dimethyl-butyl]cyclopropanecarboxamide]	12	40	89	16	
CCC(C)(C)[C@H](NC(=O)C(F)F)C(=O)N1C[C@H]2[C@@H]([C@H]1C(=O)NN(C[C@@H]1CCNC1=O)C(=O)[C@@H](F)Cl)C2(C)C [Example 148, N-[(1S)-1-[(1R,2S,5S)-2-[[[(2S)-2-chloro-2-fluoro-acetyl]-[[(3S)-2-oxopyrrolidin-3-yl]methyl]amino]carbamoyl]-6,6-dimethyl-3-azabicyclo[3.1.0]hexane-3-carbonyl]-2,2-dimethyl-butyl]-2,2-difluoro-acetamide]	13	30	130	20	
CCC(C)(C)[C@H](NC(=O)C1(F)CC1)C(=O)N1C[C@@H]2CCC[C@@H]2[C@H]1C(=O)NN(C[C@@H]1CCNC1=O)C(=O)[C@H](F)Cl [Example 149, N-[(1S)-1-[(3S,3aS,6aR)-3-[[[(2R)-2-chloro-2-fluoro-acetyl]-[[(3S)-2-oxopyrrolidin-3-yl]methyl]amino]carbamoyl]-3,3a,4,5,6,6a-hexahydro-1H-cyclopenta[c]pyrrole-2-carbonyl]-2,2-dimethyl-butyl]-1-fluoro-cyclopropanecarboxamide]		45	139	15	6
CCC(C)(C)[C@H](NC(=O)[C@@H]1CC1(F)F)C(=O)N1C[C@@H]2CCC[C@@H]2[C@H]1C(=O)NN(C[C@@H]1CCNC1=O)C(=O)[C@H](F)Cl [Example 150, (1S)—N-[(1S)-1-[(3S,3aS,6aR)-3-[[[(2R)-2-chloro-2-fluoro-acetyl]-[[(3S)-2-oxopyrrolidin-3-yl]methyl]amino]carbamoyl]-3,3a,4,5,6,6a-hexahydro-1H-cyclopenta[c]pyrrole-2-carbonyl]-2,2-dimethyl-butyl]-2,2-difluoro-cyclopropanecarboxamide]	11	33	63	16	
CCC(C)(C)[C@H](NC(=O)C(F)F)C(=O)N1C[C@@H]2CCC[C@@H]2[C@H]1C(=O)NN(C[C@@H]1CCNC1=O)C(=O)[C@H](F)Cl [Example 151, N-[(1S)-1-[(3S,3aS,6aR)-3-[[[(2R)-2-chloro-2-fluoro-acetyl]-[[(3S)-2-oxopyrrolidin-3-yl]methyl]amino]carbamoyl]-3,3a,4,5,6,6a-hexahydro-1H-cyclopenta[c]pyrrole-2-carbonyl]-2,2-dimethyl-butyl]-2,2-difluoro-acetamide]	13	31	67	14	
CCC(C)(C)[C@H](NC(=O)[C@@H]1CC1(F)F)C(=O)N1C[C@@H]2CCC[C@@H]2[C@H]1C(=O)NN(C[C@@H]1CCNC1=O)C(=O)[C@@H](F)Cl [Example 152, (1S)—N-[(1S)-1-[(3S,3aS,6aR)-3-[[[(2S)-2-chloro-2-fluoro-acetyl]-[[(3S)-2-oxopyrrolidin-3-yl]methyl]amino]carbamoyl]-3,3a,4,5,6,6a-hexahydro-1H-cyclopenta[c]pyrrole-2-carbonyl]-2,2-dimethyl-butyl]-2,2-difluoro-cyclopropanecarboxamide]	15	28	99	20	
CCC(C)(C)[C@H](NC(=O)C(F)F)C(=O)N1C[C@@H]2CCC[C@@H]2[C@H]1C(=O)NN(C[C@@H]1CCNC1=O)C(=O)[C@@H](F)Cl [Example 153, N-[(1S)-1-[(3S,3aS,6aR)-3-[[[(2S)-2-chloro-2-fluoro-acetyl]-[[(3S)-2-oxopyrrolidin-3-yl]methyl]amino]carbamoyl]-3,3a,4,5,6,6a-hexahydro-1H-cyclopenta[c]pyrrole-2-carbonyl]-2,2-dimethyl-butyl]-2,2-difluoro-acetamide]	12	43	250	15	
CCC(C)(C)[C@H](NC(=O)C1(F)CC1)C(=O)N1CC(C)(C)C[C@H]1C(=O)NN(C[C@@H]1CCNC1=O)C(=O)[C@H](F)Cl [Example 154, N-[(1S)-1-[(2S)-2-[[[(2R)-2-chloro-2-fluoro-acetyl]-[[(3S)-2-oxopyrrolidin-3-yl]methyl]amino]carbamoyl]-4,4-dimethyl-pyrrolidine-1-carbonyl]-2,2-dimethyl-butyl]-1-fluoro-cyclopropanecarboxamide]	17	52	305	21	
CC(C)(C)[C@H](NC(=O)C(F)(F)F)C(=O)N1CCC(C)(C)[C@H]1C(=O)NN(C[C@@H]1CCNC1=O)C(=O)[C@H](F)Cl [Example 155a, N-[(1S)-1-[(2S)-2-[[[(2R)-2-chloro-2-fluoro-acetyl]-[[(3S)-2-oxopyrrolidin-3-yl]methyl]amino]carbamoyl]-3,3-dimethyl-pyrrolidine-1-carbonyl]-2,2-dimethyl-propyl]-2,2,2-trifluoro-acetamide]	24	739	1330	28	
CC(C)(C)[C@H](NC(=O)C(F)(F)F)C(=O)N1CCC(C)(C)[C@@H]1C(=O)NN(C[C@@H]1CCNC1=O)C(=O)[C@H](F)Cl [Example 155b, N-[(1S)-1-[(2R)-2-[[[(2R)-2-chloro-2-fluoro-acetyl]-[[(3S)-2-oxopyrrolidin-3-yl]methyl]amino]carbamoyl]-3,3-dimethyl-pyrrolidine-1-carbonyl]-2,2-dimethyl-propyl]-2,2,2-trifluoro-acetamide]	1570	> 10000	> 10000	2440	
